Experimental data reported in US8013112B2, “Compositions comprising human brain natriuretic peptide (BNP) fragments” (Abbott Laboratories, priority 2006, dated 2011).
Bridges are numbered along the chain shown (N, C = ends). Roman numbers before positions name the chains, in order. Where no end group is shown, it is not given here.

Columns and labels:
[1] = assay type: in vitro ADME, human
Description: EDTA plasma of healthy human subjects and human BNP plasma specimens were obtained from ProMedDx LLC (Norton, Mass.), shipped on dry ice, and stored at −70° C. before use.
In this study, human BNP degradation products in human BNP specimens and the impact of temperature on degradation was studied. Prior to sample extractions for analysis, each sample was split into two vials and incubated at room temperature for 0 hours (t=0 hour) and 48 hours (t=48 hours), respectively. The samples were then extracted using the methodology described in Example 4 and analyzed by the API 4000.
Experiments were conducted to determine if human BNP n-32 fragments (where n is an interger b=1, 2, 3, 4, 5, 6) were present in the specimen and to evaluate whether aminopeptidase type protease is involved in human BNP degradation. The samples were prepared and analyzed using the same methodology as described in Example 4, except that samples were monitored for human BNP n-32 fragments (n=1, 2, 3, 4, 5, 6[…]).
Next, to determine if ring cleavage products were present, human BNP fragment 5-32x was then monitored prior to and after incubation at room temperature. The samples were not monitored for other human BNP n-32x fragments since these fragments would be formed by the same process as human BNP 5-32x fragments. Additionally, monitoring for more fragments would reduce the detection sensitivity of the method.
Using both of these approaches, human BNP fragments prior to and after room temperature incubation were monitored for both human BNP n-32 fragments and human BNP n-32x fragments for 20 samples.

[2] = assay type: in vitro ADME, human; remark: listed apart in the source
Description: Human BNP was spiked into Human BNP specimens (EDTA plasma) using the same procedure as in Example 2, and the spiked samples were studied using the same methodology as in Example 4. […] However, the cleavage rates appeared to be slower in the heart-failure patient samples: after 8 hours incubation at the room temperature, 80% of the degradation products still contain the C-terminus (human BNP fragment 3-32, human BNP 1-32, and human BNP fragments 3-32X and 1-32x). When the same concentration of human BNP was spiked into a pooled EDTA plasma of healthy human subjects, only 5% of the fragments contain intact C-terminus after 4 hours incubation at room temperature (See, Example 5).

[3] = Degradation time course of human BNP 1-32 spiked in pooled EDTA plasma of healthy human subjects, LC/MS
Description: An aliquot of the mixture was taken at various time points with protease inhibitor added and frozen immediately. Samples were extracted along with an internal standard (the internal standard was a biotinylated human BNP mutant. In this mutant, amino acid 32 (histidine) was replaced by alanine and is hereinafter referred to as “Biotin-BNP1-32 (H32A)”) by a monoclonal antibody 106.3 (hereinafter referred to as “mAb 106.3”) coated magnetic microparticles and released human BNP and fragments were analyzed by LC/MS. The relative abundance of each fragments were plotted.
To study human BNP degradation near physiological concentration, an API4000 LC/MS system (Applied Biosystems, Foster City, Calif.) equipped with Agilent 1100 HPLC was used to determine the degradation of human BNP spiked at 5 ng/mL in a pooled normal EDTA plasma. […] The major human BNP degradation products (namely, 1-32, 3-32, 3-30, and 3-30x) and kinetics were analyzed by LC/MS using selected ion monitoring mode according to instrument protocol. […]
The relative concentration of human BNP fragments 3-32, 3-30 and 3-30x were monitored at various time points (0.5, 4, 6, 8, 10, 24 hours). Triply charged human BNP peptides and human BNP fragments, namely, 1-32, 3-32, 3-30, and 3-30x were monitored at m/z 1155.6, 1094.6.

Row | Compound | Human BNP fragment Peak high ranking (T = 0 hours) [1] | degradation products that still contain the C-terminus [2] [%] | relative concentration over the time course of study ([3]; human BNP spiked at 5 ng/mL in pooled normal EDTA plasma, room temperature, 0.5-24 hours (FIG. 7)) | fragments that contain intact C-terminus ([3]; human BNP spiked in pooled EDTA plasma of healthy human subjects, after 4 hours incubation at room temperature) [%] | major cleavage product after incubation at room temperature [1]
1 | CC[C@H](C)[C@@H]1NC(=O)[C@H](CCCNC(=N)N)NC(=O)[C@H](CC(=O)O)NC(=O)[C@H](CCSC)NC(=O)[C@H](CCCCN)NC(=O)[C@H](CCCNC(=N)N)NC(=O)CNC(=O)[C@H](Cc2ccccc2)NC(=O)[C@@H](NC(=O)CNC(=O)[C@H](CO)NC(=O)CNC(=O)[C@H](CCC(N)=O)NC(=O)[C@@H](NC(=O)[C@H](CCSC)NC(=O)[C@H](CCCCN)NC(=O)[C@@H]2CCCN2C(=O)[C@@H](N)CO)C(C)C)CSSC[C@@H](C(=O)N[C@@H](CCCCN)C(=O)N[C@H](C(=O)N[C@@H](CC(C)C)C(=O)N[C@@H](CCCN=C(N)N)C(=O)N[C@@H](CCCN=C(N)N)C(=O)N[C@@H](Cc2cnc[nH]2)C(=O)O)C(C)C)NC(=O)CNC(=O)[C@H](CC(C)C)NC(=O)CNC(=O)[C@H](CO)NC(=O)[C@H](CO)NC(=O)[C@H](CO)NC(=O)[C@H](CO)NC1=O [1-32] | 3 | 80 | decreased drastically | 5 | –
2 | 5-30x: Human BNP Fragment Composition 5-30x: ring-cleaved, cross-linked form of fragment 5-30 | 4 | – | – | – | –
3 | 3-30x: Human BNP Fragment Composition: 3-30 with ring cleavage, two fragments (e.g. BNP3-17 and BNP18-30) cross-linked by disulfide bond (chain 1 KMVQGSGCFGRKMDR; chain 2 ISSSSGLGCKVLR; disulfide I:8-II:9 (inferred)) | 5 | – | – | – | –
4 | 5-32x: ring-cleaved, cross-linked form of human BNP fragment 5-32 | – | – | – | – | become the major product
